# Reference: a melting point compilation (Tetko et al.; mined from patent text by program, amines drawn as free bases though some values may be those of a salt)
row,SMILES,melting point [°C]
1,CC(C)CC(C=CCC(N)=O)NC(=O)C1CCCN1C(=O)OCc1ccccc1 (stereo not drawn),140 to 142
2,CCNC(=O)c1ccc(-c2ccc3nnn(Cc4ccc5ncccc5c4)c3n2)cc1F,207 to 209
3,CCOC(=O)c1[nH]cc(-c2ccc(F)cc2)c1-c1ccc(F)cc1,157 to 159
4,COC(=O)CN1C(=O)c2ccc(F)cc2S1(=O)=O,86
5,CCOC(=O)COc1ccc(N)cc1,157 to 158
6,CCCc1nnc2n1N=C(c1ccc([N+](=O)[O-])cc1)c1cc(OC)c(Br)cc1C2,238 to 240
7,Cc1ccc(SCc2c(C(C)C)nc(C(C)C)c(CO)c2-c2ccc(F)cc2)cc1,90 to 91
8,COC(=O)c1sc(C(=O)OC)c(OC)c1N,120 to 124
9,COC(=O)c1ccc(CBr)c(OC)c1,87 to 90
10,CCC(=NOCC=Cc1ccc(Br)cc1)C1=C(O)CC(C2CCCSC2)CC1=O (stereo not drawn),97 to 99
11,CC(C)Nc1ccc(O)cc1,143
12,CNC(=C(Br)C#N)c1ccc(Cl)cc1,178
13,CCC[C@H]1CC[C@H](CCc2ccc(-c3ccc(OCC)c(F)c3F)cc2)CC1,73
14,COC(=O)c1cc(S(=O)(=O)N(C)C)c(F)c(F)c1Nc1ccc(I)cc1Cl,154 to 156
15,CCCCCCCCC(=O)N(C)Cc1ccc(C(=O)O)cc1,79.5 to 81
16,O=C(CCC1CCNCC1)c1cc2c3c(c1)CCN3C(=O)CC2,114 to 115

row,SMILES,melting point [°C]
1,CN(C)C(=O)Nc1cccc(CCC#N)c1,159 to 161
2,C=C(C)C(=O)NCCCCCC(=O)Nc1cc(Cl)c(C)c(Cl)c1O,111 to 115
3,COC(=O)c1cccc(S(=O)(=O)N2CCC(N3N=C(c4ccc(OC)c(OC)c4)C(C)(C)C3=O)CC2)c1,214
4,CC1CCc2cc(F)cc3c(=O)c(C(=O)NN)cn1c23 (stereo not drawn),236 to 238
5,O=C(NCc1ccc2c(c1)OCO2)c1ccc2[nH]c(=O)n(Cc3ccc4c(c3)OCO4)c(=O)c2c1,245
6,Oc1cc(N2CCCCC2)c(Cl)cc1CCBr,115 to 116
7,CNCCN(C)C(=O)[C@@H]1CCCN1S(=O)(=O)c1ccc(Cl)c(COc2cccc3c(-n4ccnc4)cc(C)nc23)c1Cl,116
8,COc1ccc(C)cc1NC(=O)Nc1ccc(N2CCN(C(=O)C3CC4CCC3C4)CC2)cc1 (stereo not drawn),126 to 128
9,N#Cc1nn(-c2c(Cl)cc(C(F)(F)F)cc2Cl)c(N)c1-c1ccccc1C(F)(F)F,161
10,COc1cc(C(=O)CCC(=O)O)ccc1O,174 to 175
11,C=CCN(C=CC=C(C#N)C#N)CC=C,50 to 52
12,CC(C)CC(NC(=O)C(Cc1c[nH]cn1)NC(=O)C(CC(=O)NCCc1ccccc1)Cc1cccc2ccccc12)C(O)CNCc1ccccc1 (mixture of isomers),108 to 113
13,S=C(Cc1cccnc1)N1CCC(=C2c3ccc(Cl)cc3CCc3cccnc32)CC1,92 to 93
14,CCCCCCCCCCCCCCCCCCOc1cc(OC(C)=O)cc(N(CC(=O)O)CC(=O)O)c1,122 to 127
15,Cn1c(C(F)(F)F)cc(=O)n(-c2c(F)cc(Br)c(O)c2N)c1=O,98 to 100

# The next lines start with the values.
row,melting point [°C],SMILES
1,118,C#Cc1ccc2c(c1)CC1SC(c3ccccc3)=NC21O (stereo not drawn)
2,154,CCN(CC)CCC1CCN(C(=O)N2c3ccccc3C(=O)Nc3cccnc32)CC1
3,198 to 200,O=C1[C@H]2CCC[C@H]2N(C(=O)CBr)c2ccccc2N1Cc1ccccc1F (relative stereo)
4,78,Cc1ccc(S(=O)(=O)OCC(O)(CC(C)(C)c2ccccc2)C(F)(F)F)cc1 (stereo not drawn)
5,173 to 174,O=C(Cn1nc(-c2ccccc2O)nc1-c1ccccc1O)NCCOCCO
6,79 to 80,CC(=O)NCC1CCN(CCOc2ccccc2)CC1
7,128 to 129,c1csc(-c2ncc(COc3ccc(CCCCn4ccnc4)cc3)s2)c1
8,59,O=[N+]([O-])c1ccc(F)c(Br)c1
9,114 to 117,CS(=O)(=O)Nc1ccccc1OC/C=C/CN1CCC(OC(c2ccccc2)c2cccs2)CC1 (stereo not drawn)
10,250,Cc1cc(C)c2ccc(N3C(=O)c4nccnc4C3=O)nc2n1
11,193 to 195,CC1=C(C(=O)O)C(c2cccc([N+](=O)[O-])c2)N(C(=O)N(C)C)C(=O)N1 (stereo not drawn)
12,206,NC(=O)NN(C(=O)c1ccccc1)c1ccccn1
13,169 to 171,Cc1ccc2c(n1)sc1c(=O)n(C)nnc12
14,118 to 120,CC(CC(=O)Nc1c(Cl)ccc2nc(CCCNCCCO)ccc12)c1ccccc1 (stereo not drawn)
15,127 to 128,COc1ccc(C(=O)Nc2ccccc2CCC2CCCCN2C)cc1 (stereo not drawn)
16,191 to 193,N#Cc1ccc([C@@H]2[C@@H]3C(=O)N(Cc4ccccc4)C(=O)[C@@H]3[C@H]3CCCN32)cc1 (racemic)
17,167 to 169,CC(=O)Nc1c(C(=O)c2ccc3ccccc3c2)[nH]c2cc(Cl)ccc12
18,145 to 147,CN1CCN(C2=Nc3ccccc3Sc3nccn32)CC1
19,118 to 119,Cc1nc(-c2ccccc2)n(-c2ccc(S(C)(=O)=O)cc2)n1
20,178 to 180,CCOC(=O)C(=O)c1nsc(NC(=O)c2ccccc2)n1
21,65 to 70,O=C(Cl)[C@@H]1CCC(=O)N1C(=O)OCc1ccccc1

row,melting point [°C],SMILES
1,210,CCOC(=O)c1nccn1C1C(=O)c2ccccc2N1C(C)=O (stereo not drawn)
2,180 to 183,NS(=O)(=O)c1ccc(-c2cnn(CC(F)(F)F)c(=O)c2-c2ccc(Cl)c(F)c2)cc1
3,179 to 180,CC(c1ccc(F)cc1)N1CCC(n2cnc3ccccc3c2=O)CC1 (stereo not drawn)
4,90 to 91,O=c1[nH]c(=O)n(Cc2cccc(OCc3noc(-c4ccc(C(F)(F)F)cc4)n3)c2)o1
5,185,O=C1Nc2ccc(Cl)cc2C1(Cl)c1ccccc1OC(F)(F)F (stereo not drawn)
6,210 to 211,Cc1cc(-c2nc3cccnn3c2-c2ccnc(NC(=O)c3ccc4ncccc4c3)c2)ccc1F
7,196 to 198,COc1ccc(-c2c(C)cc3c(O)cc(C)nn23)c(Cl)c1
8,152,O=Cc1ccc(C(=O)Nc2ccc(OCC(F)(F)C(F)F)cc2)cc1
9,109 to 111,O=C1Oc2ccccc2C1c1ccccc1 (stereo not drawn)
10,149 to 150,CCOc1cc(COc2nn(-c3ccccc3)cc2C=O)ccc1OCc1nc(-c2ccco2)oc1C
11,180,COc1ccc2cc(-c3ccc(Cl)c(-n4nc(C)c(C)n4)c3)c(=O)oc2c1
12,114 to 115,CC1(C)Nc2cccc3cccc(c23)N1
13,265 to 268,CN(C)C=Cc1[nH]c(=O)ccc1C(=O)c1ccc(Br)cc1
14,175 to 179,O=C(O)C1=Cc2cc(Cl)cc(CO)c2OC1C(F)(F)F (stereo not drawn)
15,169 to 170,Cc1nc2c(N)nc3ccccc3c2n1CCCCNC(=O)C1CCCC1
16,235 to 240,COc1ccc(C=C2CS(=O)(=O)CC3=C2N=C2SCCN2C3c2ccc(OC)cc2)cc1 (stereo not drawn)
17,189 to 191,Brc1ccn2nc(-c3ccccc3)nc2c1
18,99 to 101,COC(=O)[C@@H](CCN1C(=O)c2ccccc2C1=O)Oc1c(Br)cc(-c2c(Br)ccc3sc4ccccc4c23)cc1Br
19,207 to 210,Nc1cc(Cl)c(N)c2c1C(=O)c1ccccc1C2=O
20,170 to 172,O=c1nc(-c2ccco2)sc2ccccc12
21,177 to 179,Cc1nc(-c2cccc(OC(C)C)c2)sc1C(=O)O
